Structures can show the parent of a compound that is named as a salt.
Columns and labels:
Type in all cases: physicochemical
[1] = Vapor-liquid equilibrium still, separation of 1,1,1-trichloroethane from ethanol
[2] = Vapor-liquid equilibrium still, separation of 1,1,1-trichloroethane from 2-butanol
[3] = Vapor-liquid equilibrium still, separation of 1,1,1-trichloroethane from n-propanol
[4] = Vapor-liquid equilibrium still, separation of 1,1,1-trichloroethane from methanol
[5] = Vapor-liquid equilibrium still, separation of 1,1,1-trichloroethane from isopropanol
[6] = * Brings out Ethanol as Overhead
[7] = 1,1,1-trichloroethane from ethanol
[8] = 1,1,1-trichloroethane from 2-butanol, vapor-liquid equilibrium still
[9] = 1,1,1-trichloroethane from methanol, vapor-liquid equilibrium still
[10] = 1,1,1-trichloroethane from n-propanol, vapor-liquid equilibrium still

COc1ccccc1 [Anisole]
Relative Volatility [1, 6]: 1.25

CCCCCCCCCC(C)=O [2-Undecanone]
Relative Volatility [1, 7]: 1.4

COCC(C)OC(C)=O (centres unmarked) [1-Methoxy-2-acetoxy propane]
Relative Volatility [2, 8]: 2.0

COC(=O)c1ccccc1 [Methyl benzoate]
Relative Volatility [3]: 1.25

CCOCCC(=O)OCC [Ethyl 3-ethoxy propionate]
Relative Volatility [1, 7]: 1.6

CCOC(=O)c1ccccc1 [Ethyl benzoate]
Relative Volatility [1, 7]: 1.55

COCC(C)OC(C)=O (centres unmarked) [Propylene glycol methyl ether acetate]
Relative Volatility [4, 9]: 2.3
Relative Volatility [2]: 1.8

CCCCCCOC(C)=O [Hexyl acetate]
Relative Volatility [5]: 1.35
Relative Volatility [2]: 1.6

CC(=O)CC(C)C [Methyl isobutyl ketone]
Relative Volatility [3]: 1.5
Relative Volatility [1, 7]: 1.85

CC(C)CC(=O)CC(C)C [Diisobutyl ketone]
Relative Volatility [4]: 2.7
Relative Volatility [1, 7]: 1.7
Relative Volatility [2]: 1.5

CC(=O)c1ccccc1 [Acetophenone]
Relative Volatility [3]: 1.7
Relative Volatility [4, 9]: 2.3
Relative Volatility [1, 7]: 1.35
Relative Volatility [2]: 3.0

OCc1ccccc1 [Benzyl alcohol]
Relative Volatility [2, 8]: 3.5

CC(=O)CC(C)C [4-Methyl-2-pentanone]
Relative Volatility [3]: 1.4
Relative Volatility [1, 7]: 1.6

CCCCC(CC)COC(C)=O (centres unmarked) [2-Ethyl hexyl acetate]
Relative Volatility [5]: 1.3
Relative Volatility [4, 9]: 2.0
Relative Volatility [2]: 1.6

CC(C)CCO [3-Methyl-1-butanol]
Relative Volatility [1, 7]: 2.9

1-Methoxy-2-acetoxy propanol
Relative Volatility [4, 9]: 2.3

CCCC(=O)OCC [Ethyl butyrate]
Relative Volatility [5]: 1.3
Relative Volatility [1, 6]: 1.2

CC(=O)OC(C)CC(C)C (centres unmarked) [4-Methyl pentyl acetate-2]
Relative Volatility [4, 9]: 2.9
Relative Volatility [1, 6]: 1.45
Relative Volatility [2, 8]: 1.7

CCCCCCCO [Heptyl alcohol]
Relative Volatility [4]: 3.6
Relative Volatility [2]: 3.1

CC(=O)CCC(C)C [5-Methyl-2-hexanone]
Relative Volatility [3, 10]: 1.3

COCC(C)O (centres unmarked) [1-Methoxy-2-propanol]
Relative Volatility [1, 7]: 2.9

Dipropylene glycol methyl ether
Relative Volatility [4, 9]: 4.3
Relative Volatility [1, 7]: 1.85

O=C(OCc1ccccc1)c1ccccc1 [Benzyl benzoate]
Relative Volatility [3, 10]: 1.6

CCC(CC)CO [2-Ethyl butanol]
Relative Volatility [4]: 1.4
Relative Volatility [2, 8]: 3.3

CCCCCC(C)=O [2-Heptanone]
Relative Volatility [4, 9]: 3.2
Relative Volatility [1, 7]: 1.3
Relative Volatility [2]: 1.4

CCCCCCOCCO [Ethylene glycol hexyl ether]
Relative Volatility [4]: 3.1
Relative Volatility [2]: 2.9

CCOCCOC(C)=O [Ethylene glycol ethyl ether acetate]
Relative Volatility [4]: 2.5
Relative Volatility [1, 6]: 1.5

CC(=O)CC(C)(C)O [Diacetone alcohol]
Relative Volatility [1, 7]: 2.7

CC(=O)CC(C)=O [2,4-Pentanedione]
Relative Volatility [3]: 1.6
Relative Volatility [4]: 2.7
Relative Volatility [2]: 1.8

CCC[N+](=O)[O-] [1-Nitropropane]
Relative Volatility [3]: 1.3
Relative Volatility [4, 9]: 2.1
Relative Volatility [2]: 1.6

CC(C)CC(O)CC(C)C [Diisobutyl carbinol]
Relative Volatility [2]: 2.2

CCOCCOCCOCC [Diethylene glycol diethyl ether]
Relative Volatility [3]: 1.6
Relative Volatility [4]: 2.7
Relative Volatility [1, 6]: 1.2
Relative Volatility [2]: 1.6

CC(=O)O[C@@H]1C[C@H]2CC[C@]1(C)C2(C)C (racemic) [Isobornyl acetate]
Relative Volatility [4]: 2.5
Relative Volatility [1, 6]: 1.6
Relative Volatility [2]: 1.7

CC(=O)Oc1ccccc1 [Phenyl acetate]
Relative Volatility [5]: 1.25

CCCCCCOC=O [n-Hexyl formate]
Relative Volatility [4]: 1.7
Relative Volatility [1, 7]: 1.4
Relative Volatility [2]: 1.5

CCC(C)COC(C)=O (centres unmarked) [2-Methyl butyl acetate]
Relative Volatility [5]: 1.35

N#CCCCCC#N [Adiponitrile]
Relative Volatility [5]: 1.25

Tripropylene glycol methyl ether
Relative Volatility [4, 9]: 3.2

CC(=O)CCC(C)C [Methyl isoamyl ketone]
Relative Volatility [4, 9]: 2.3
Relative Volatility [1, 7]: 2.0
Relative Volatility [2, 8]: 1.6

CCOC(=O)CC(C)=O [Ethyl acetoacetate]
Relative Volatility [4, 9]: 2.8
Relative Volatility [1, 7]: 1.7
Relative Volatility [2]: 1.8

CCCCOC(C)=O [n-Butyl acetate]
Relative Volatility [1, 6]: 3.5

CC(=O)OCCC(C)C [Isoamyl acetate]
Relative Volatility [1, 7]: 1.25

CCCCCOC(C)=O [n-Amyl acetate]
Relative Volatility [1, 6]: 1.85

CCOC(=O)Cc1ccccc1 [Ethyl phenyl acetate]
Relative Volatility [1, 6]: 1.5

O=[N+]([O-])c1ccccc1 [Nitrobenzene]
Relative Volatility [3]: 1.4
Relative Volatility [4]: 2.5
Relative Volatility [2]: 1.6

CC(C)CC(=O)CC(C)C [2,6-Dimethyl-4-heptanone]
Relative Volatility [1, 7]: 1.65

CC(C)CCCCCCCO [Isodecyl alcohol]
Relative Volatility [4, 9]: 2.3
Relative Volatility [2, 8]: 2.4

CCCCCCC(C)=O [2-Octanone]
Relative Volatility [3]: 1.25

OCC1CCCO1 (centres unmarked) [Tetrahydro furfuryl alcohol]
Relative Volatility [4, 9]: 3.3
Relative Volatility [1, 7]: 2.3
Relative Volatility [2, 8]: 3.2

CN1CCCC1=O [1-Methyl-2-pyrrolidinone]
Relative Volatility [4]: 2.7
Relative Volatility [1, 7]: 2.5
Relative Volatility [2, 8]: 3.6

CC[N+](=O)[O-] [Nitroethane]
Relative Volatility [5]: 1.3
Relative Volatility [4]: 2.8

CCCCCCCCCCO [n-Decanol]
Relative Volatility [4]: 2.5
Relative Volatility [2, 8]: 2.3

CC(C)CCCCCO [Isooctyl alcohol]
Relative Volatility [4]: 2.5
Relative Volatility [1, 7]: 2.1
Relative Volatility [2, 8]: 2.4

COCC(C)OC(C)=O (centres unmarked) [1-Methoxy-2-propanol acetate]
Relative Volatility [5]: 1.7
Relative Volatility [4]: 1.7
Relative Volatility [2, 8]: 4.3

CCCCCOC(C)=O [Amyl acetate]
Relative Volatility [5]: 1.4
Relative Volatility [4, 9]: 2.1
Relative Volatility [2]: 1.5

CC(=O)C(C)(C)C [3,3-Dimethyl-2-butanone]
Relative Volatility [3]: 1.4
Relative Volatility [1, 7]: 1.65

CCOCCOCCOC(C)=O [Diethylene glycol ethyl ether acetate]
Relative Volatility [4, 9]: 2.8
Relative Volatility [2, 8]: 2.1

CCCOC(C)=O [n-Propyl acetate]
Relative Volatility [1, 7]: 1.85

CCCCC(=O)CC [3-Heptanone]
Relative Volatility [3]: 1.25

CC(=O)OCC(C)C [Isobutyl acetate]
Relative Volatility [5]: 1.35

CCCCCCC(C)O (centres unmarked) [2-Octanol]
Relative Volatility [4, 9]: 2.8
Relative Volatility [2, 8]: 2.6

CC(C)[N+](=O)[O-] [2-Nitropropane]
Relative Volatility [3]: 1.4
Relative Volatility [4, 9]: 2.0
Relative Volatility [2]: 1.6

CC(C)CC(C)O (centres unmarked) [4-Methyl-2-pentanol]
Relative Volatility [4, 9]: 4.2
Relative Volatility [1, 7]: 2.1
Relative Volatility [2, 8]: 3.2

CC(=O)OC(C)C [Isopropyl acetate]
Relative Volatility [1, 7]: 1.6

— patent publication US5196094A, “Separation of 1,1,1-trichloroethane from the lower alcohols by extractive distillation” (priority 1991, dated 1993)
